Test results reported in article PMC12040169 (PLOS Biology, 2025).

Test: in vitro
Conditions: human, hela cells

SMILES	viability at 28.5 h, 10 µM
CN(C)[C@@H]1C[C@H](C2(c3ccccc3)OCCO2)CC[C@H]1N(C)C(=O)Cc1ccc(Cl)c(Cl)c1 [CBK016338]	87.8%

Same assay, conditions: human, hela cells, % viability

SMILES	viability at 28.5 h, 10 µM
CNC(=O)CN1CCC[C@@H]2NC(=O)COc3ccccc3C(=O)N[C@@H]3CCOC[C@@H]3C/C=C/C[C@@H]21 [CBK292040]	100%
CCOC(=O)CSc1nc2ccccc2c(=O)n1Cc1ccccc1 [CBK054124]	95.4%
NC(=O)CCC(NC=O)C(=O)O (stereo not shown) [CBK260967]	88.4%
CN(C)c1ccc(Nc2cc(-c3ccco3)ncn2)cc1 [CBK090946]	90.3%
Cn1cccc1C1(O)CCCC2CN(C(=O)c3ccco3)CC21 (stereo not shown) [CBK284509]	99.9%
CCOC(=O)C1=C(Nc2ccc(O)cc2)C(=O)N(C(C)(C)C)C1 [CBK005677]	83%
Cc1cc(/C=C2/NC(=S)NC2=O)c(C)n1-c1ccc(Sc2ccc([N+](=O)[O-])cc2)cc1 [CBK263883]	109%
CC(C)(CN)CN(Cc1c[nH]c(-c2ccccc2)n1)C(=O)Nc1ccc(C(C)(C)C)cc1 [CBK002462C]	87.5%
COc1cc(CNc2nnn[nH]2)cc(Br)c1OCc1ccc(Cl)cc1 [CBK300496]	87.2%
O=C(Nc1nnc(C2=COCCO2)o1)c1cccc(F)c1 [CBK287408]	85.3%
Cc1ccc(Nc2ncc(C(=O)NCCCN3CCCCCC3)c3ccccc23)cc1Cl [CBK291197]	105%
COc1ccc2[nH]c3c(c2c1)CCNC31CCN(C(=O)NC(C)(C)C)CC1 [CBK047069]	97.4%
CN1C(=O)CC2(C1=O)C(=O)N(CCCn1c(=O)n(C)c3ccccc31)c1ccc(F)cc12 (stereo not shown) [CBK075441]	110%
Cn1ncnc1COc1ccc(S(=O)(=O)N2CCCCC2CN)cc1 (stereo not shown) [CBK304313C]	82.3%
OC/C=C/c1cnc2ccccc2c1 [CBK001749]	119%
CC(C)(C)NC(=O)CCn1c(-c2cccnc2)cc2cccnc21 [CBK282691]	109%
Cn1c(-c2ccccc2)cnc1NC(=O)CC1CCN(C(=O)Cc2ccccc2)CC1 [CBK285966]	96.9%
Cc1cc(OCC(=O)NN2CCN(C)CC2)ccc1[N+](=O)[O-] [CBK268136]	99.8%
COc1ccccc1CNC(=O)c1cc(-c2ccccc2)nc2ccccc12 [CBK294458]	104%
COc1ccc(Nc2nc(N)nc(CSc3nncn3C)n2)cc1 [CBK266730]	88.9%
CC(C)S(=O)(=O)N1C2CCC(C2)[C@@H]1COc1ccc(F)cc1 (stereo partly shown) [CBK285292]	101%
Cc1c(CN2CCCC(n3cnc4cc(F)ccc43)C2)cnn1C (stereo not shown) [CBK284478]	89.9%

SMILES	viability at 28.5 h, 10 µM
Cn1nnnc1Sc1cc(=O)n(C)c(=O)n1C [CBK011072]	114%
Cc1cn(CC(=O)NCC2(c3cccc(F)c3)CCCC2)nn1 [CBK281436]	89.7%
COc1ccccc1CN(Cc1cccs1)C(=O)Cn1cnnn1 [CBK305866]	96.5%
CCc1nn(CC(=O)N2CCCCC2)c(=O)c2cc3ccsc3n12 [CBK284119]	85.7%
COc1ccc(CCN(Cc2cccnc2)CC(O)COc2cccc3c2CCCC3)cc1 (stereo not shown) [CBK024545T]	92%
CC1CN(C2CCN(S(=O)(=O)c3cccs3)CC2)C(=O)O1 (stereo not shown) [CBK044072]	112%
COc1cc(Nc2cncc(-c3ccc4ccccc4c3)n2)cc(OC)c1OC [CBK065176]	61.7%
N#CCCN(Cc1ccccc1)C(=O)c1ccccc1[N+](=O)[O-] [CBK264434]	92.6%
CC(=O)N1CCN(C(C(=O)O)c2c[nH]c3cc(NC(=O)c4ccccc4)ccc23)CC1 (stereo not shown) [CBK286680]	84.9%
CCc1nn2c(=O)cc(CN3CCN(C(=O)c4cccs4)CC3)nc2s1 [CBK306474]	108%
CCCn1c(CN2CCOCC2)nc2ccccc21 [CBK287784]	99.1%
O=C(CSc1cccs1)Nc1nccs1 [CBK019601]	88.7%
O=C(NCc1ccccc1)c1ccc(N2C(=O)CSC23C(=O)Nc2ccccc23)cc1 (stereo not shown) [CBK093476]	109%
CCNc1n[nH]c(N)c1-c1nc(-c2ccc(OC)cc2)no1 [CBK288557]	94.2%
Cc1ccc(NC(=S)NC(=O)Cc2ccccc2)c(O)c1 [CBK264337]	106%
Cc1cc(N2C(=O)NS(=O)(=O)c3cccnc32)ccc1F [CBK288461]	90.5%
Cc1nc2ncnn2c(C)c1CCC(=O)OCc1ccc(C#N)cc1 [CBK305838]	83.7%
CC(C)[C@H](CO)Nc1cncc(-c2ccccc2CO)n1 [CBK065326]	88.6%
Cc1ccc(S(=O)(=O)N2C[C@H]3C[C@H](NC(=O)C(C)C)[C@H]3C2)cc1 [CBK285317]	107%
CC(C)c1cc(C(=O)N(CCO)CC2CC3C=CC2C3)n(C)n1 (stereo not shown) [CBK282164]	84.6%
CCCCC(c1ccc(Cl)cc1)N(CCN(C)C)c1ccccn1 (stereo not shown) [CBK012315F]	86.3%
O=C(O)CCSc1nc(-c2ccccc2)c(-c2ccccc2)n1-c1ccccc1 [CBK264837]	113%

SMILES	viability at 28.5 h, 10 µM
O=C(COc1ccc(Br)cc1C(=O)O)Nc1ccc(F)cc1 [CBK286671]	92%
CCOC(=O)[C@H]1CC[C@]2(CC1)CNC(=O)c1ccccc1O2 [CBK284893]	92.5%
CC(=O)NC1CCN(c2nc(C(C)(C)C)nc3c2cnn3C)CC1 [CBK307431]	101%
O=C(c1cccnc1)N1CCN(C(=O)c2ccco2)CC1 [CBK072684]	94.3%
O=S(=O)(Nc1nc(-c2sccc2Cl)cs1)c1cc(Cl)ccc1Cl [CBK014147]	94.2%
CC1CCN(Cc2c(O)ccc3occ(C(=O)c4ccccc4)c23)CC1 [CBK111319]	89.8%
Nc1ncc(-c2ccc(C(=O)N3CCOCC3)cc2)nc1C(=O)NC1CCCC1 [CBK149155]	89.3%
NC(=O)Nn1c(CCC(=O)O)ccc1-c1cccs1 [CBK266019]	93.1%
Cc1ccc(=O)n(CC(=O)N2CCC[C@@H]3NC(=O)c4ccccc4OCCCCC[C@@H]32)n1 [CBK292100]	94%
COc1ccc(C(=O)Nc2ccccc2N2CCN(C)CC2)cc1Cl [CBK268001]	90.5%
COc1cccc(C(=O)N2CCN(S(=O)(=O)c3ccc([N+](=O)[O-])cc3)CC2)c1 [CBK157533]	96.9%
CN1CCCc2ccc(S(=O)(=O)Nc3nc4ncccn4n3)cc21 [CBK305226]	85.7%
COc1ccc([N+](=O)[O-])c(Oc2ccccc2OCc2ccccc2)n1 [CBK002753]	88%
Cc1ncncc1C(=O)N1CCCCC1CCc1ccccc1 (stereo not shown) [CBK282264]	109%
CSCCN1CCN(c2nccnc2Oc2ccc(F)cc2)CC1 [CBK083028T]	93.2%
COc1ccc(C(=O)N2CCC3(CCCN(CCN(C)C)C3)C2)cc1OC (stereo not shown) [CBK132873]	95.6%
O=C1NC2(CCCC2)C(=O)N1Cc1cnn(-c2ccccc2)n1 [CBK305568]	103%
CCC(=O)N1CCCC1c1nc(C)c2c(n1)N(Cc1ccc(F)cc1)CCC2 (stereo not shown) [CBK286247]	104%
Cc1ccc2nc3c(cc2c1)CN(Cc1ccco1)C(=O)CO3 [CBK283594]	103%
Fc1ccc(CCN2CCC(Oc3cncc(OCC4COc5ccccc5O4)n3)C2)cc1 (stereo not shown) [CBK084383]	99.8%
c1ccc2sc(CCCCc3nc4ccccc4s3)nc2c1 [CBK261248]	92.5%
O=C(c1ccc(-c2nccnc2NCc2cccs2)cc1)N1CCOCC1 [CBK037059]	98.8%

SMILES	viability at 28.5 h, 10 µM
CC(=O)N(C)Cc1cccc(Nc2ncnc3c2cnn3CCC#N)c1 [CBK306232]	88.5%
CC(=O)N1CC[C@@H](CC(=O)O)[C@@H](CC2=NCCc3ccc(C(C)(C)C)cc32)C1 [CBK289165]	84.4%
CC(C)C[C@H](NC(=O)N1CC(=O)Nc2ccccc21)C(=O)O [CBK286589]	94.8%
CC(C)C(=O)N1C[C@H]2NC(=O)c3ccccc3C(=O)[C@@]2(C)C1 [CBK281658]	103%
O=C(Cn1c(-c2cccs2)cc2cccnc21)NCC1CC1 [CBK282553]	106%
CCOC(=O)CNS(=O)(=O)c1ccc(-c2ccccc2)cc1 [CBK034435]	99.5%
COc1ccc(-c2c(C)nn3c(=O)c(Cc4ccccc4)c(C)[nH]c23)cc1 [CBK266951]	94.2%
COC(=O)N1CCN(c2ccccc2)CC1 [CBK200414]	85.5%
O=C(O)c1cccc(NS(=O)(=O)CC(F)(F)F)c1 [CBK155712]	94.3%
CC(=O)N1Cc2cc(C)ccc2OC2(CCN(CC3CC3)CC2)C1 [CBK285021]	95%
Cc1ncc(CNC(=O)C2CC2)c(-c2cn(C)c3ccccc23)n1 [CBK283366]	103%
Cc1nc(=O)c(-c2ccccc2)c(C)n1-c1ccc2cn[nH]c2c1 [CBK288193]	100%
COCCNC(=O)c1cc2n(n1)C(C(F)(F)F)CC(c1cccs1)N2 (stereo not shown) [CBK307614]	113%
CN(C)c1nc(NCc2ccccc2)nc(SCC(=O)Nc2ccc(Cl)c(Cl)c2)n1 [CBK267289]	97%
CC(N)C1CCCN(S(=O)(=O)c2ccc(OCc3ncnn3C)cc2)C1 (stereo not shown) [CBK304105]	114%
COCCNc1cc(-c2ccc(SC)cc2)ncn1 [CBK090795]	105%
CCN(CC)CCNC(=O)c1ccc(Nc2cncc(-c3ccc(O)cc3)n2)c(OC)c1 [CBK122659]	82.2%
C[C@H]1CN2C[C@H](O)CC2CN1Cc1cccn1Cc1ccccc1F (stereo partly shown) [CBK285165]	88.7%
Cc1ccccc1Cc1cccc(C2CCN(S(=O)(=O)c3cn(C)nc3C)CC2)n1 [CBK286141]	86.7%

Same assay, conditions: human, hela cells, % viability, bulk resorufin, single well

SMILES	viability at 28.5 h, 10 µM
O=C(Cn1cc(/C=C2/C(=O)NC(=S)N(c3ccc(Cl)cc3)C2=O)c2ccccc21)Nc1ccccc1 [CBK263535]	98.4%
O=C1C(=CNCCc2c[nH]c3ccccc23)C(=O)N(c2ccccc2)C(=S)N1c1ccccc1 [CBK265557]	98.5%
